How the values were obtained:
[1] = for surface tension liquid-gas: Ring tensiometer; for mass density: 101.33 kPa, Liquid
[2] = xn = mol fraction of the nth substance listed; details: for surface tension liquid-gas: Ring tensiometer; for mass density: 101 kPa, Liquid, Vibrating tube method
[3] = 101 kPa, Liquid mixture 1, Ring tensiometer

CCCCCC[n+]1ccn(C)c1.O=S(=O)([N-]S(=O)(=O)C(F)(F)F)C(F)(F)F
[1]
Details | mass density [kg/m3] | surface tension liquid-gas [mN/m]
283.1 K | 1385.4 | 31.2
298.15 K | 1370.7 | 30.8
323.15 K | 1348 | 28.9
348.15 K | 1324 | 27.6

CCCCCC[n+]1ccn(C)c1.O=S(=O)([N-]S(=O)(=O)C(F)(F)F)C(F)(F)F + C=CCCCCCC
[2], x2 = 0
Details | mass density [kg/m3] | surface tension liquid-gas [mN/m]
283.1 K | 1385.4 | 31.2
298.15 K | 1370.7 | 30.8
323.15 K | 1348 | 28.9
348.15 K | 1324 | 27.6

C=CCCCCCC [oct-1-ene] + CCCCCC[n+]1ccn(C)c1.O=S(=O)([N-]S(=O)(=O)C(F)(F)F)C(F)(F)F
[2]
Details | mass density [kg/m3] | surface tension liquid-gas [mN/m]
283.1 K, x1 = 0.05 | 1372.1 | 30.9
283.1 K, x1 = 0.1 | 1356 | 29.8
283.1 K, x1 = 0.139 | 1340 | –
283.1 K, x1 = 0.15 | – | 27.8
283.1 K, x1 = 0.154 | 1340 | –
283.1 K, x1 = 0.16 | – | 27.7
283.1 K, x1 = 1 | – | 22.5
298.15 K, x1 = 0.05 | 1358 | 30.3
298.15 K, x1 = 0.1 | 1342 | 29.4
298.15 K, x1 = 0.139 | 1328 | –
298.15 K, x1 = 0.15 | – | 27.4
298.15 K, x1 = 0.154 | 1326 | –
298.15 K, x1 = 0.19 | – | 27
298.15 K, x1 = 1 | – | 21.2
323.15 K, x1 = 0.05 | 1336 | 28.8
323.15 K, x1 = 0.1 | 1319 | 28.7
323.15 K, x1 = 0.139 | 1306 | –
323.15 K, x1 = 0.15 | – | 26.6
323.15 K, x1 = 0.154 | 1303 | –
323.15 K, x1 = 0.23 | – | 25.5
323.15 K, x1 = 1 | – | 18.5
348.15 K, x1 = 0.05 | 1313 | 27.4
348.15 K, x1 = 0.1 | 1300 | 27.2
348.15 K, x1 = 0.139 | 1282 | –
348.15 K, x1 = 0.15 | – | 26.3
348.15 K, x1 = 0.154 | 1279 | –
348.15 K, x1 = 0.28 | – | 25.3
348.15 K, x1 = 1 | – | 15.7

[3]
Details | interfacial tension [mN/m]
283.1 K | 13.3
298.15 K | 13
323.15 K | 9.7
348.15 K | 4.4

C=CCCCCCC [oct-1-ene]
[1]
Details | surface tension liquid-gas [mN/m]
283.1 K | 22.5
298.15 K | 21.2
323.15 K | 18.5
348.15 K | 15.7

[1], Vibrating tube method
Details | mass density [kg/m3]
283.1 K | 723.5
298.15 K | 711.2
323.15 K | 690
348.15 K | 668

— the NIST ThermoML archive (doi:10.1021/je900697w)
